Converted amounts (≈) assume the structure as drawn.
Tests used:
Enterococcus faecalis [1] = experiment: Antimicrobial activity against Enterococcus faecalis expressing rRNA methylase gene erm(A) obtained from pig manure by broth microdilution method; format: functional
Enterococcus faecalis [2] = experiment: Antimicrobial activity against Enterococcus faecalis expressing rRNA methylase gene erm(A) obtained from human by broth microdilution method; format: functional

Row | Compound | MIC (Enterococcus faecalis [1]) [µg/mL] | MIC (Enterococcus faecalis [2]) [µg/mL]
1 | CC[C@H]1OC(=O)[C@H](C)[C@@H](O[C@H]2C[C@@](C)(OC)[C@@H](O)[C@H](C)O2)[C@H](C)[C@@H](O[C@@H]2O[C@H](C)C[C@H](N(C)C)[C@H]2O)[C@](C)(O)C[C@@H](C)C(=O)[C@H](C)[C@@H](O)[C@]1(C)O [ERYTHROMYCIN] | > 8 | 1 (≈ 1.36 µM)
2 | CN(C)[C@@H]1C(O)=C(C(N)=O)C(=O)[C@@]2(O)C(O)=C3C(=O)c4c(O)cccc4[C@@](C)(O)[C@H]3C[C@@H]12 [TETRACYCLINE] | > 4 | > 4

Reference: ChEMBL document CHEMBL1275463, “Detection of the erythromycin rRNA methylase gene erm(A) in Enterococcus faecalis” (2008)
